Reference: US20150152122A1, “TYROSINASE INHIBITORS” (Avon Products, Inc., priority 2013, published 2015)

Legend:
Mushroom tyrosinase = Mushroom tyrosinase assay; type: biochemical; details: percent change vs DMSO vehicle, L-Tyrosine substrate, 25° C., 30 min
Experimental: Mushroom tyrosinase and L-Tyrosine were obtained from Sigma-Aldrich, Inc. (St. Louis, Mo.). The enzyme activity was measured in buffer containing 100 mM phosphate buffer pH 6.8, 5% absolute ethanol, 2 micrograms/milliiliter mushroom tyrosinase, and 0.2 mg/ml L-Tyrosine. The reaction (conversion of L-Tyrosine to DOPAchrome) was conducted in triplicates at 25° C. for 30 min, and absorbance was then measured at 492 nm. Kojic Acid was used as a positive control inhibitor in these assays. Percent change in tyrosinase activity relative to vehicle control was calculated.

B16 mouse melanoma cells = assay: Inhibition of melanin production in B16 melanoma cell assay; type: cell-based; details: 4 days, normalized to cell viability (MTT), alpha MSH 2 ng/ml
Experimental: The effects of various test compounds on melanin levels were determined by performing assays using B16 melanoma cells. These cells are known to constitutively produce melanin and are a commonly utilized and accepted model system for monitoring the inhibition of melanin synthesis. The B16 mouse melanoma cells were seeded (ATCC, cat. #: CRL-6475) into 96-well tissue culture-treated plates (BD Falcon) and treated with test actives or controls in phenol red free DMEM (Mediatech; cat. #: 17-205-CV) with 2 nanogram/ml of alpha MSH (Fluka; cat #: 63605). The cells were examined for their ability to modulate pigment formation. […] Tests were performed in 6 replicates each. Following the treatment period (4 days), the level of pigment produced or melanin synthesized was quantified by reading the absorbance at 540 nm using a standard microplate reader (Tecan Group Ltd.).
After quantifying the amount of melanin, cell viability was determined using the MTT conversion method. The MTT conversion method measures the reduction of the MTT dye from a yellow colored, water-soluble, tetrazolium salt to a bluish-purple colored insoluble formazan precipitate by NAD(P)H-dependent microsomal dehydrogenase enzymes, which only function in viable cells. The intensity of the blue color is indicative of cell viability. After quantifying the amount of melanin pigment produced, the cells were exposed to MTT dye solution (1 mg/ml) for two to three hours. Formazan material was solubilized with reagent alcohol (95% ethanol: 5% isopropanol) and shaken on an orbital shaker for 15-30 minutes. MTT dye uptake and conversion by viable cells were determined by measuring the extracted formazan at 570 nm using a microplate reader. Total pigmentation was calculated, normalized to cell viability values and expressed as the average percent change in melanin activity relative to control of the six experiments performed.

[1] = system: Human Epidermal Melanocytes, neonatal, darkly pigmented donor (HEMn-DP); assay: Human Primary Melanocyte Pigmentation Assay (HEMn-DP); type: cell-based; details: 5 days, normalized to cell viability
Experimental: The effects of various test compounds on melanin productions were determined by performing assays using Human Epidermal Melanocytes, neonatal, darkly pigmented donor (HEMn-DP). The HEMn-DP cells were seeded (Invitrogen; cat. #: C-202-5C) into 6-well tissue culture-treated plates (BD Falcon) and treated with test actives or controls in Medium 254 (Invitrogen; cat. #: M-254-500) supplemented with 1% HMSG (Invitrogen; cat. #: S-002-5) and 1% PS. The cells were examined for their ability to modulate pigment formation. […] Tests were performed in triplicates each. Following the treatment period (5 days), supernatants were aspirated. The melanin was extracted with 0.5 ml of 2N NaOH for 30 minutes at 80° C. The level of melanin synthesized within the cells was quantified by reading the absorbance at 405 nm using a standard microplate reader (Tecan Group Ltd.).
The cell viability was determined using the MTT conversion method. The MTT conversion method measures the reduction of the MTT dye from a yellow colored, water-soluble, tetrazolium salt to a bluish-purple colored insoluble formazan precipitate by NAD(P)H-dependent microsomal dehydrogenase enzymes, which only function in viable cells. […] MTT dye uptake and conversion by viable cells were determined by measuring the extracted formazan at 570 nm using a microplate reader. Total pigmentation was calculated and normalized to cell viability values. […]

[2] = system: MELANODERM (MEL-300-B) human skin model; assay: 3D skin equivalent tissue pigmentation assay (MELANODERM); type: cell-based; details: topical 10 μl, Day 11
Experimental: The effect of the tyrosinase inhibitors on melanin levels was investigated using a MELANODERM™ (MEL-300-B, MatTek Corp., Ashland, Mass.) human skin model. MELANODERM™ is a viable reconstituted three-dimensional human skin equivalent containing melanocytes derived from African-American donors. Tissues were maintained in culture medium EPI-100-NMM-113 at 37° C. as recommended by the manufacturer.
The compounds were dissolved in either 69% propylene glycol+30% EtOH+1% DMSO or 70% propylene glycol+30% EtOH desired concentration (w/v). 10 μl of the solution was applied topically to the MELANODERMTM tissue while culture medium was added on days 1, 2, 4, 7, and 9. Control tissues were treated with the 10 μl of corresponding vehicle only. On Day 11, tissues were collected and homogenized in a buffer containing 1% SDS, 50 mM EDTA, and 10 mM Tris, pH 6.8. To each homogenate, protease K (5 mg/ml) was added and incubated overnight at 45° C. Additional protease K was added and incubated for 4 hours at 45° C., followed by the addition of 0.5M sodium carbonate and 30% H2O2 and incubation at 80° C. for 30 minutes. The samples were cooled down to room temperature, and extracted with chloroform/methanol (2:1). After centrifugation at 10,000 g for 10 minutes, absorbance of the top phase was measured at 450 nm. Percent change in melanin levels in treated tissue was calculated relative to control. The average percent change in melanin relative to control of the three tissues is reported in the Table 5 in accordance with the scale: 0: <7% decrease in pigmentation level; +: between 8-14% decrease; ++: between 15-20% decrease; +++: between 21-30% decrease; ++++: >31% decrease; C=cytotoxic

human skin explants = assay: Melanin production in human skin explants; type: cell-based; details: human skin explant
Experimental: The effects of test compound AV7909 on melanin levels in human skin explants were determined relative to a DMSO control and Kojic Acid benchmark.

Compound	Tyrosinase Activity relative to Vehicle Control (Mushroom tyrosinase; concentration 0.0010%) [%]	Tyrosinase Activity relative to Vehicle Control (Mushroom tyrosinase; concentration 0.0100%) [%]	B16 Assay Percent Change Melanin Compared to Vehicle (B16 mouse melanoma cells; concentration 0.0010%) [%]	B16 Assay Percent Change Melanin Compared to Vehicle (B16 mouse melanoma cells; concentration 0.0001%) [%]	HUMAN PRIMARY MELANOCYTE PIGMENTATION ASSAY (change in melanin compared to DMSO vehicle control) ([1]; concentration 0.0001%)	HUMAN PRIMARY MELANOCYTE PIGMENTATION ASSAY (change in melanin compared to DMSO vehicle control) ([1]; concentration 0.001%)	3D Tissue Pigmentation Assay (change in melanin compared to vehicle control) ([2]; concentration 0.05% (w/v))	3D Tissue Pigmentation Assay (change in melanin compared to vehicle control) ([2]; concentration 0.1% (w/v))	3D Tissue Pigmentation Assay (change in melanin compared to vehicle control) ([2]; concentration 0.25% (w/v))	3D Tissue Pigmentation Assay (change in melanin compared to vehicle control) ([2]; concentration 0.5% (w/v))	Pigment Production (percent change in melanin compared to DMSO vehicle control) (human skin explants; concentration 0.1%) [%]	Pigment Production (percent change in melanin compared to DMSO vehicle control) (human skin explants; concentration 0.5%) [%]
Sc1nnc2sc3ccccc3n12 [AV0442]	−73	−49	−19	–	–	–	–	–	–	–	–	–
CC(C)c1nc(=S)[nH]n1-c1ccccc1 [AV1973]	–	−81	−60	−17	–	–	–	–	–	–	–	–
S=c1nc(-c2cccs2)cn[nH]1 [AV4926]	−75	−53	−49	–	–	–	–	–	–	–	–	–
S=c1[nH]nc(-c2ccc3c(c2)OCO3)o1 [AV5828]	−48	−77	−30	−13	–	–	–	–	–	–	–	–
Cn1c2ccccc2n2c(=S)[nH]nc12 [AV7533]	−74	−70	−63	−31	0 (<10% decrease in pigmentation level)	++ (between 31-50% decrease)	+ (between 8-14% decrease)	+ (between 8-14% decrease)	++ (between 15-20% decrease)	–	–	–
Cc1cc(C)n(-c2ccc(=S)[nH]n2)n1 [AV7909]	−82	−70	−79	−17	–	–	–	++ (between 15-20% decrease)	+++ (between 21-30% decrease)	++++ (>31% decrease)	−17	−28
O=c1cc(CO)occ1O [Kojic Acid, Kojic acid (5-hydroxy-4-pyran-4-one-2-methyl), reference compound]	–	–	–	–	–	–	–	–	–	–	−23	–
